Laboratory results as given in patent publication US20260124214A1, “HETEROCYCLIC COMPOUNDS FOR USE IN THE TREATMENT OF CANCER” (ARTIOS PHARMA LIMITED, priority 2021, published 2026).
Counter-ions that a name gives are not always drawn.

Target: T1, Human Polθ polymerase domain (aa1820-2590) (Homo sapiens, UniProt O75417)
T1 construct: Human Polθ polymerase domain (aa1820-2590) was expressed in E. Coli; made in house; host or cells: E. coli
T1 sequence (O75417 1820-2590): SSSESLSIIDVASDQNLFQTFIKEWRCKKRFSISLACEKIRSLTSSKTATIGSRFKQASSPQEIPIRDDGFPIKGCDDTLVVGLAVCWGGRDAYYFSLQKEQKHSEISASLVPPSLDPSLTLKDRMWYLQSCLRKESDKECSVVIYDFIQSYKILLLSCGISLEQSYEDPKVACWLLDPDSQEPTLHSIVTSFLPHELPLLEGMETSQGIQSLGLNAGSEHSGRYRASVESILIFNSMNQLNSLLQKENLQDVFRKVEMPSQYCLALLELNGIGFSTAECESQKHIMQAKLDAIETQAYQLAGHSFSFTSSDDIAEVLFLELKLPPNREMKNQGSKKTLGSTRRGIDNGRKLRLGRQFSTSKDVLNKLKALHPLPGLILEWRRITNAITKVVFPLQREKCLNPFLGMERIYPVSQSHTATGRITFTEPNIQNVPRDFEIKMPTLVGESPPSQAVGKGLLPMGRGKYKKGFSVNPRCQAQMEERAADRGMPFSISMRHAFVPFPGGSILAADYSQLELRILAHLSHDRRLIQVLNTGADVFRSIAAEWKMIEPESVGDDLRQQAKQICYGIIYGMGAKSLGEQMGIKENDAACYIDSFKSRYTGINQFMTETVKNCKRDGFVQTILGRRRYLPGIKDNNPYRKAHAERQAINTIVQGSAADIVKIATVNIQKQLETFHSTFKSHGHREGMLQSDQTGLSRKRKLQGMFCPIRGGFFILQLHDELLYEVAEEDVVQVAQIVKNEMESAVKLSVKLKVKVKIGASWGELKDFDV
Experiment: Polθ Polymerase Domain WT KI Assay (PicoGreen)
Type: biochemical
Conditions: 100 nM DNA substrate, 0.156 nM Polθ, initial rates vs inhibitor concentration
Method: A PicoGreen assay was used to measure the KI values of reversible compounds that inhibit the activity of Polθ in vitro.
Human Polθ polymerase domain (aa1820-2590) was expressed in E. Coli, purified, aliquoted and stored at −80° C. until required. Polθ substrate was generated from a 1.2:1 mix of DNA II Short to DNA II Long to give a final concentration of […] substrate in annealing buffer (20 mM Tris pH 7.5, 50 mM NaCl). The substrate was heated in 50 mL aliquots to 95° C. in a heating block for 5 min before the heating block switched off, the reaction left to cool to rt and stored at −20° C. until required.
Assay measurements were performed with 1× buffer comprising 25 mM Tris pH 7.5, 12.5 mM NaCl, […], 5% (v/v) glycerol, 0.01% v/v Triton x-100, 0.1 mg/ml BSA, 1 mM DTT. […] 100 nL of 23×1:1.5-fold serial dilutions and a DMSO only control were dispensed using the Tecan dispenser into Greiner 384 well black low volume plates (product code 784076). DMSO concentration was maintained at 1% of the final assay volume by back filling with DMSO.
To stop the reaction, 5 μL of a solution containing 25 mM Tris-HCl PH 7.5 and 20 mM EDTA was added at […] (t=0, 15, 30, 60, 90, 120, 150, 180 mins) using the Tempest's time delay function. The plates were covered during the time course to prevent evaporation. After completing the assay, 5 μL of detection reagent (25 mM Tris-HCl pH 7.5 and 2.5% (v/v) PicoGreen) was dispensed into the wells using a Tempest liquid handler (Formulatrix) and plates subsequently read on the CLARIOstar Plus (BMG Labtech) using the default optical settings for fluorescein and the auto gain/focus settings.
All data analysis was carried out using GraphPad Prism V.8 (GraphPad Software Inc, San Diego, CA). Time course data for each inhibitor concentration were fitted to the linear regression model in GraphPad Prism. Any time points where the control (DMSO only) reaction was no longer linear were excluded from the analysis. The initial rates (slopes) obtained from the linear regression were then plotted against inhibitor concentration and fitted to an inhibitor vs. response variable slope (four parameter) model on GraphPad Prism to determine the KI values.

Row | SMILES | Ki [nM]
1 | Cc1cc(C(F)(F)F)cc(N2C(=O)C[C@@H]3CN(CC(C)O)c4c(Cl)cccc4N(C)C(=O)[C@H]32)n1 (single isomer, unassigned) [Example 131b] | 1.92
2 | Cc1cc(C(F)(F)F)cc(N2C(=O)C[C@@H]3CN(CC4CCCN4)c4c(Cl)cccc4N(C)C(=O)[C@H]32)n1 (single isomer, unassigned) [Example 107a] | 3.91
3 | Cc1cc(C(F)(F)F)cc(N2C(=O)C[C@@H]3CN(CC4COCCN4)c4c(Cl)cccc4N(C)C(=O)[C@H]32)n1 (single isomer, unassigned) [Example 108b] | 1.55
4 | Cc1cc(C(F)(F)F)cc(N2C(=O)C[C@@H]3CN(Cc4ccc([C@@H]5CCCN5C)cc4)c4c(F)cccc4N(C)C(=O)[C@H]32)n1 (racemic) [Example 125b, (3aR,11aS)-6-Fluoro-10-methyl-1-(6-methyl-4-(trifluoromethyl)pyridin-2-yl)-5-(4-((S/R)-1-methylpyrrolidin-2-yl)benzyl)-1,3a,4,5,10,11a-hexahydro-2H-benzo[b]pyrrolo[2,3-f][1,4]diazocine-2,11(3H)-dione] | 2.48
5 | Cc1cc(C(F)(F)F)cc(N2C(=O)C[C@@H]3CN(CC(=O)N4CCN(C)CC4)c4c(C)cccc4N(C)C(=O)[C@H]32)n1 [Example 93, (3aR,11aS)-6,10-Dimethyl-1-(6-methyl-4-(trifluoromethyl)pyridin-2-yl)-5-(2-(4-methylpiperazin-1-yl)-2-oxoethyl)-1,3a,4,5,10,11a-hexahydro-2H-benzo[b]pyrrolo[2,3-f][1,4]diazocine-2,11(3H)-dione] | 1.19
6 | Cc1cc(C(F)(F)F)cc(N2C(=O)C[C@@H]3CN(CCN4CC[C@@H](O)C4)c4c(Cl)cccc4N(C)C(=O)[C@H]32)n1 [Example 31, (3aR,11aS)-6-Chloro-5-(2-((R)-3-hydroxypyrrolidin-1-yl)ethyl)-10-methyl-1-(6-methyl-4-(trifluoromethyl)pyridin-2-yl)-1,3a,4,5,10,11a-hexahydro-2H-benzo[b]pyrrolo[2,3-f][1,4]diazocine-2,11(3H)-dione] | 2.62
7 | CCN(CC)CCN1C[C@H]2CC(=O)N(c3cc(C(F)(F)F)cc(C)n3)[C@@H]2C(=O)N(C)c2cccc(Cl)c21 [Example 21, (3aR,11aS)-6-Chloro-5-(2-(diethylamino)ethyl)-10-methyl-1-(6-methyl-4-(trifluoromethyl)pyridin-2-yl)-1,3a,4,5,10,11a-hexahydro-2H-benzo[b]pyrrolo[2,3-f][1,4]diazocine-2,11(3H)-dione] | 9.94
8 | Cc1cc(C(F)(F)F)cc(N2C(=O)C[C@@H]3CN(CC(C)O)c4c(F)cccc4N(C)C(=O)[C@H]32)n1 (mixture of isomers) [Example 130a, (3aR,11aS)-6-fluoro-5-((S/R)-2-hydroxypropyl)-10-methyl-1-(6-methyl-4-(trifluoromethyl)pyridin-2-yl)-1,3a,4,5,10,11a-hexahydro-2H-benzo[b]pyrrolo[2,3-f][1,4]diazocine-2,11(3H)-dione] | 11.8
9 | Cc1cc(C(F)(F)F)cc(N2C(=O)C[C@@H]3CN(CCN4CCC(F)(F)CC4)c4c(Cl)cccc4N(C)C(=O)[C@H]32)n1 [Example 22, (3aR,11aS)-6-Chloro-5-(2-(4,4-difluoropiperidin-1-yl)ethyl)-10-methyl-1-(6-methyl-4-(trifluoromethyl)pyridin-2-yl)-1,3a,4,5,10,11a-hexahydro-2H-benzo[b]pyrrolo[2,3-f][1,4]diazocine-2,11(3H)-dione] | 1.79
10 | Cc1cc(C(F)(F)F)cc(N2C(=O)C[C@@H]3CN(CCCN4CCOCC4)c4c(F)cccc4N(C)C(=O)[C@H]32)n1 [Example 137, (3aR,11aS)-6-Fluoro-10-methyl-1-(6-methyl-4-(trifluoromethyl)pyridin-2-yl)-5-(3-morpholinopropyl)-1,3a,4,5,10,11a-hexahydro-2H-benzo[b]pyrrolo[2,3-f][1,4]diazocine-2,11(3H)-dione] | 10.1
11 | Cc1cc(C(F)(F)F)cc(N2C(=O)C[C@@H]3CN(CCN4CC[C@@H](C#N)C4)c4c(Cl)cccc4N(C)C(=O)[C@H]32)n1 [Example 40, (R)-1-(2-((3aR,11aS)-6-Chloro-10-methyl-1-(6-methyl-4-(trifluoromethyl)pyridin-2-yl)-2,11-dioxo-1,2,3,3a,4,10,11,11a-octahydro-5H-benzo[b]pyrrolo[2,3-f][1,4]diazocin-5-yl)ethyl)pyrrolidine-3-carbonitrile] | 2.92
12 | Cc1cc(C(F)(F)F)cc(N2C(=O)C[C@@H]3CN(c4ccccn4)c4c(F)cccc4N(C)C(=O)[C@H]32)n1 [Example 134, (3aR,11aS)-6-Fluoro-10-methyl-1-(6-methyl-4-(trifluoromethyl)pyridin-2-yl)-5-(pyridin-2-yl)-1,3a,4,5,10,11a-hexahydro-2H-benzo[b]pyrrolo[2,3-f][1,4]diazocine-2,11(3H)-dione] | 104
13 | CC(=O)N1CCN(CCN2C[C@H]3CC(=O)N(c4cc(C(F)(F)F)cc(C)n4)[C@@H]3C(=O)N(C)c3cccc(Cl)c32)CC1 [Example 33, (3aR,11aS)-5-(2-(4-Acetylpiperazin-1-yl)ethyl)-6-chloro-10-methyl-1-(6-methyl-4-(trifluoromethyl)pyridin-2-yl)-1,3a,4,5,10,11a-hexahydro-2H-benzo[b]pyrrolo[2,3-f][1,4]diazocine-2,11(3H)-dione] | 1.73
14 | Cc1cc(C(F)(F)F)cc(N2C(=O)C[C@@H]3CN(CCN4CCC(C#N)CC4)c4c(Cl)cccc4N(C)C(=O)[C@H]32)n1 [Example 38, 1-(2-((3aR,11aS)-6-Chloro-10-methyl-1-(6-methyl-4-(trifluoromethyl)pyridin-2-yl)-2,11-dioxo-1,2,3,3a,4,10,11,11a-octahydro-5H-benzo[b]pyrrolo[2,3-f][1,4]diazocin-5-yl)ethyl)piperidine-4-carbonitrile] | 1.2
15 | Cc1cc(C(F)(F)F)cc(N2C(=O)C[C@@H]3CN(CC4COCCN4)c4c(F)cccc4N(C)C(=O)[C@H]32)n1 (single isomer, unassigned) [Example 106a] | 13.7
16 | Cc1cc(C(F)(F)F)cc(N2C(=O)C[C@@H]3CN(C[C@@H]4CCNC4)c4c(Cl)cccc4N(C)C(=O)[C@H]32)n1 [Example 99, (3aR,11aS)-6-Chloro-10-methyl-1-(6-methyl-4-(trifluoromethyl)pyridin-2-yl)-5-(((R)-pyrrolidin-3-yl)methyl)-1,3a,4,5,10,11a-hexahydro-2H-benzo[b]pyrrolo[2,3-f][1,4]diazocine-2,11(3H)-dione hydrochloride] | 3.05
17 | Cc1cc(C(F)(F)F)cc(N2C(=O)C[C@@H]3CN(C[C@H]4CCNC[C@H]4C#N)c4c(Cl)cccc4N(C)C(=O)[C@H]32)n1 (relative stereo) [Example 102, (rel-cis)-4-(((3aR,11aS)-6-Chloro-10-methyl-1-(6-methyl-4-(trifluoromethyl)pyridin-2-yl)-2,11-dioxo-1,2,3,3a,4,10,11,11a-octahydro-5H-benzo[b]pyrrolo[2,3-f][1,4]diazocin-5-yl)methyl)piperidine-3-carbonitrile hydrochloride] | 1.77
18 | Cc1cc(C(F)(F)F)cc(N2C(=O)C[C@@H]3CN(CCN4CC[C@@H](C(=O)N(C)C)C4)c4c(C)cccc4N(C)C(=O)[C@H]32)n1 [Example 73, (R)-1-(2-((3aR,11aS)-6,10-Dimethyl-1-(6-methyl-4-(trifluoromethyl)pyridin-2-yl)-2,11-dioxo-1,2,3,3a,4,10,11,11a-octahydro-5H-benzo[b]pyrrolo[2,3-f][1,4]diazocin-5-yl)ethyl)-N,N-dimethylpyrrolidine-3-carboxamide] | 8.12
